# Measurements: US20260028332A1, “POLYMORPHIC FORM OF GLP-1R AGONIST, PREPARATION METHOD THEREFOR AND USE THEREOF” (MINDRANK THERAPEUTICS (SUZHOU) NEW DRUG RESEARCH AND …, priority 2022, published 2026)
# Tests used:
# Format in all cases: physicochemical
# [1] = Equilibrium solubility study of polymorph in biological media (supernatant concentration; residual solid by XRPD); conditions: for crystal form change of the solid in FaSSGF: ~10 mg/mL suspension; for crystal form change of the solid in FaSSGF / crystal form change of the solid in other media: solid tested by XRPD; for Whether the crystal form is changed: residual solid by XRPD after 24 h at 37±2° C.; for stability in biological media compared with the amorphous solid: H2O; for crystal form change of the solid in other media: media other than FaSSGF (H2O, FaSSIF, FeSSIF)
# Experimental: In the tests, the solids were suspended in corresponding buffers to formulate suspensions (˜10 mg/mL), and the suspensions were mixed at 37±2° C. After 24 h, samples of the suspensions were taken. The supernatant was filtered, and the concentration was determined. The solid was tested by XRPD.
# Crystal form 2A of compound II was tested for its equilibrium solubility in water (H2O), fasted state simulated gastric fluid (FaSSGF), fasted state simulated intestinal fluid (FaSSIF), and fed state simulated intestinal fluid (FeSSIF). In the tests, the solids were suspended in corresponding buffers to formulate suspensions (˜10 mg/mL), and the suspensions were mixed at 37±2° C. After 24 h, samples of the suspensions were taken. The supernatant was filtered, and the concentration was determined. The solid was tested by XRPD.
# [2] = Solid state stability study of polymorph (purity by HPLC and crystal form change after 7 days storage); conditions: for purity change, long-term storage condition: 25° C./60% RH; for purity change, long-term storage condition / purity change, accelerated condition / purity change, high-temperature condition: 7 days; for purity change, high-temperature condition: 60° C., RH<30%; for crystal form change after storage: 7 days in long-term storage, accelerated and high-temperature conditions; for overall solid state stability: 7 days storage study, conclusion
# Experimental: Crystal form 2A of compound II was preserved in long-term storage (25° C./60% RH), accelerated (40° C./75% RH), and high-temperature (60° C., RH<30%) conditions for 7 days, and tested for purity and crystal form change by HPLC, so as to examine the stability of the solids.
# [3] = Hygroscopic behavior test by dynamic vapor sorption (DVS); conditions: for solid form change after DVS / hygroscopicity / Sample weight change at 80% RH (%): 25° C.; for solid form change after DVS: 0-90% RH; for hygroscopicity: 0-90% RH adsorption curve, at 80% RH; for Whether the crystal form is changed: after DVS test at 25° C.
# From the text: The experimental method for characterizing an acid salt or a base salt of compound III by dynamic vapor sorption (DVS) was as follows: A small amount of a powder of a polymorph of compound III was taken and placed into a precise sample tray that matches the instrument. After the sample was loaded, the sample tray was sent into the instrument for analysis. In the present disclosure, the instrument model used in the dynamic vapor sorption analysis was Intrinsic PLUS; the experimental parameter was set as follows: a constant temperature of 25° C. was set; the mass percent change rate per unit time (dm/dt)=0.02%/min was used as a criterion for determining that a balance is achieved; the program humidity change cycle was set as follows: the initial relative humidity was 0%, and the endpoint relative humidity was 90%.
# The DVS plot of the amorphous solid of the compound is shown in FIG. 67, and the DVS plot of crystal form D of the compound is shown in FIG. 68 The results are shown in the table below
# The inventors assessed the stability risk of samples under varying humidity at 25° C. using the dynamic vapor sorption method and conducted the DVS test on the representative crystal form 2A of compound II to evaluate the hygroscopicity of the crystal form of the compound.
# [4] = Equilibrium solubility study of polymorph in biological media (supernatant concentration; residual solid by XRPD); conditions: for Whether the crystal form is changed: residual solid by XRPD after 24 h at 37±2° C.; for solubility thermodynamic at 24 h: 37 °C, thermodynamic from solid, suspension ~10 mg/mL, 37±2° C.
# [5] = Solid state stability study of polymorph (purity by HPLC and crystal form change after 7 days storage); conditions: for Purity (%) / Initial purity (%): HPLC; for Initial purity (%): before storage
# [6] = FaSSGF, FaSSIF, FeSSIF, 37±2° C., 24 h
# [7] = 25° C./60% RH, 7 days (long-term storage), compound II
# [8] = 60° C., 7 days (high-temperature, RH<30%), compound II
# [9] = 25° C./60% RH, 7 days (long-term storage), compound I
# [10] = 40° C./75% RH, 7 days (accelerated), compound I
# [11] = 60° C., 7 days (high-temperature, RH<30%), compound I
SMILES,"crystal form change of the solid in FaSSGF ([1]; FaSSGF, 37±2° C., 24 h)","stability in biological media compared with the amorphous solid [1, 6]","crystal form change of the solid in other media ([1]; 37±2° C., 24 h)","purity change, long-term storage condition ([2]; HPLC)","purity change, accelerated condition ([2]; 40° C./75% RH, HPLC)","purity change, high-temperature condition ([2]; HPLC)",crystal form change after storage [2],overall solid state stability [2],solid form change after DVS [3],hygroscopicity [3],"hygroscopicity ([3]; DVS, compound I)","Sample weight change at 80% RH (%) ([3]; DVS, compound I)",Whether the crystal form is changed ([3]; compound I),"Whether the crystal form is changed ([4]; H2O, polymorph of compound I)","Purity (%) [5, 9]","Crystal form change [5, 9]","Purity (%) [5, 10]","Crystal form change [5, 10]","Purity (%) [5, 11]","Crystal form change [5, 11]",also measured
"N#Cc1ccc(OCc2cccc(OC3CCN(Cc4nc5ccc(C(=O)O)cc5n4C[C@@H]4CCO4)CC3)n2)c(F)c1 [crystal form 2A of compound II, (S)-2-((4-((6-((4-cyano-2-fluorophenoxy)methyl)pyridin-2-yl)oxy)piperidin-1-yl)methyl)-1-(oxetan-2-ylmethyl)-1H-benzo[d]imidazole-6-carboxylic acid]",converted into a hydrochloride salt,significantly superior,no crystal form changes,no significant purity changes,no significant purity changes,no significant purity changes,no significant purity changes or significant crystal form changes,good stability,no solid form changes were observed,slightly hygroscopic,–,–,–,–,–,–,–,–,–,–,"Whether the crystal form is changed ([1]; FaSSIF, polymorph of compound II): No; Whether the crystal form is changed ([1]; FeSSIF, polymorph of compound II): No; solubility thermodynamic at 24 h ([1]; fasted state simulated gastric fluid (FaSSGF), 37 °C, fassgf or other biorelevant, thermodynamic from solid, FaSSGF, suspension ~10 mg/mL, 37±2° C., 24 h, polymorph of compound II): 180 µg/mL; Purity (%) ([2]; 40° C./75% RH, 7 days (accelerated), HPLC, compound II): 97.38%; Crystal form change ([2]; 40° C./75% RH, 7 days (accelerated), compound II): No; hygroscopicity ([3]; DVS, compound II): Slightly hygroscopic; Sample weight change at 80% RH (%) ([3]; DVS, compound II): 0.71%; Whether the crystal form is changed ([3]; compound II): No; Whether the crystal form is changed ([4]; H2O, polymorph of compound II): No; solubility thermodynamic at 24 h ([4]; fasted state simulated intestinal fluid (FaSSIF), FaSSIF, polymorph of compound II): 40 µg/mL; solubility thermodynamic at 24 h ([4]; fed state simulated intestinal fluid (FeSSIF), FeSSIF, polymorph of compound II): 190 µg/mL; solubility thermodynamic at 24 h ([4]; water, H2O, polymorph of compound II): 90 µg/mL; Purity (%) [5, 7]: 97.65%; Crystal form change [5, 7]: No; Purity (%) [5, 8]: 97.63%; Crystal form change [5, 8]: No; Initial purity (%) ([5]; compound II): 97.71%"
"O=C(O)c1ccc2nc(CN3CCC(Oc4cccc(COc5ccc(Cl)cc5F)n4)CC3)n(C[C@@H]3CCO3)c2c1 [crystal form D of compound I, (S)-2-((4-((6-((4-chloro-2-fluorophenoxy)methyl)pyridin-2-yl)oxy)piperidin-I-yl)methyl)-1-(oxetan-2-ylmethyl)-1H-benzo[d]imidazole-6-carboxylic acid]",converted into a hydrochloride salt,significantly superior,no crystal form change was observed,no significant purity changes,slightly reduced purities,slightly reduced purities,no significant crystal form changes,significantly superior,no solid form changes were observed,slightly hygroscopic,Slightly hygroscopic,1.08%,No,No,99.10%,No,98.98%,No,98.61%,No,"solubility in the FaSSIF system ([1]; FaSSIF, 37±2° C., 24 h, compared with amorphous solid): significantly improved solubility; Whether the crystal form is changed ([4]; FaSSIF, polymorph of compound I): No; Whether the crystal form is changed ([4]; FeSSIF, polymorph of compound I): No; Initial purity (%) ([5]; compound I): 99.15%"
"O=C(O)c1ccc2nc(CN3CCC(Oc4cccc(COc5ccc(Cl)cc5F)n4)CC3)n(C[C@@H]3CCO3)c2c1 [amorphous solid of compound I, (S)-2-((4-((6-((4-chloro-2-fluorophenoxy)methyl)pyridin-2-yl)oxy)piperidin-1-yl)methyl)-1-(oxetan-2-ylmethyl)-1/-benzo[d]imidazole-6-carboxylic acid]",–,–,–,no significant purity changes,significant degradation,significant degradation,–,–,no solid form changes were observed,slightly hygroscopic,Slightly hygroscopic,0.90%,No,No,98.94%,No,95.86%,No,89.15%,No,Initial purity (%) ([5]; compound I): 98.98%
